This is an account of results in paper PMC7374098, “Design of thienopyranone-based BET inhibitors that bind multiple synthetic lethality targets” (Scientific Reports, 2020).

The target in one data set is T1, BRD4BD2 (Homo sapiens, UniProt O60885).
T1 construct: His; purchased Reaction Biology
Description: AlphaScreen displacement binding assay with tetra-acetylated histone H4 peptide, BRD4BD2. The note with it: displacement of H4K5acK8acK12acK16ac peptide. How it is done: (§1) In effort to enhance its potency, we designed a new set of chemotypes by in silico screening. […] These compounds were synthesized and their activities toward BRD4BD1 and BRD4BD2 were assessed in a displacement binding assay using the polyacetylated histone H4 peptide H4K5acK8acK12acK16ac as a ligand (Fig. 1b).
(§2) PI3K activity screening and IC50 measurements were performed by Life Technologies (Thermo Fisher Scientific) using ADAPTA, a fluorescence-based in vitro assay.
Background: In Alpha technology, singlet oxygen from a donor bead excites a nearby acceptor bead.

The next data set concerns the target T2, PI3Kα (Homo sapiens, UniProt P42336).
T2 construct: purchased Life Technologies (Thermo Fisher Scientific)
In words: PI3K kinase screening assay (ADAPTA). Format: biochemical. Here is the method: as §1, §2

In the next data set the target is T3, BRD4BD1 (Homo sapiens, UniProt O60885).
T3 construct: His; purchased Reaction Biology
In words: AlphaScreen displacement binding assay with tetra-acetylated histone H4 peptide, BRD4BD1. The note with it: for IC50: displacement of H4K5acK8acK12acK16ac peptide. Here is the method:
as §1, §2

For another data set, the system named is Mino cells. Description: CellTiter-Glo cell viability assay, Mino. Type of data set: cell-based. The note with it: Homo sapiens, mantle cell lymphoma, 48 h, read-out: IC50 anti-proliferative activity, Mino. The text has this: (§3) Although many inhibitors of BRD4 have been developed, the importance of inhibition of both BDs to subdue pathological processes remains unclear, as the two bromodomains have high sequence similarity. We therefore examined whether inhibition of only one bromodomain of BRD4 could lead to sufficient anti-cancer effects.
(§4) All cell lines were obtained from ATCC and tested for mycoplasma and mouse pathogens and checked for authenticity against the International Cell Line Authentication Committee (ICLAC; https://iclac.org/databases/cross-contaminations/) list. Cell viability measurements were performed using CellTiter-Glo luminescent cell viability assay (Promega). […] Cell Titer Glow assay reagent (100 µl) was added to each well and incubated for 10 min at room temperature. Luminescence signal was measured in a Varioscan multimode reader.
For orientation: ATP-based viability assays read luminescence as a measure of living cells.

The test system of another data set is SKNBE-2 cells. In words: CellTiter-Glo cell viability assay, SKNBE-2. Format: cell-based. The settings on record: Homo sapiens, SKNBE2, 48 h, read-out: IC50 anti-proliferative activity, neuroblastoma (SKNBE-2).
Description: as §3, §4

Data set [1] relates to JeKo-1 cells. Description: CellTiter-Glo cell viability assay, JeKo-1. Type of data set: cell-based. The note with it: Homo sapiens, mantle cell lymphoma, 48 h, read-out: IC50 anti-proliferative activity, JeKo-1.
Description: as §3, §4

The next data set relates to Z138 cells. In words: CellTiter-Glo cell viability assay, Z138. Type of data set: cell-based. The note with it: Homo sapiens, Z-138, mantle cell lymphoma, 48 h, read-out: IC50 anti-proliferative activity, Z138.
Description: as §3, §4

For data set [2], the system named is AKT phosphorylation at Ser473 (PI3K activity) in JeKo-1 cells. In words: Western blot of AKT phosphorylation at Ser473 in IgM-stimulated JeKo-1 cells. Type of data set: cell-based. The note with it: JeKo-1 cells stimulated with IgM, 1 h incubation, increasing concentrations up to 5 µM. Here is the method: as §3
Cells were resuspended with 1 ml of RPMI-1640 (serum free) and stimulated with 10 µg/ml of goat F(ab) 2 anti-human IgM antibody (Southern Biotech Birmingham, AL, USA) at 37 °C for 10 min. Cells were then harvested and lysed with RIPA buffer followed by Western blot analysis for pAKT expression.
(In general: A western blot detects proteins with antibodies after separation by electrophoresis.)

In a further data set the test system is PC3 cells. In words: CellTiter-Glo cell viability assay, PC3. The note with it: PTEN mutated, 48 h. Format: cell-based.
Description: as §3, §4

In another data set the test system is HCT116 cells. Description: CellTiter-Glo cell viability assay, HCT116. Type of data set: cell-based. The settings on record: Homo sapiens, HCT-116, 48 h, read-out: IC50 anti-proliferative activity, colon carcinoma (HCT116).
Description: as §3, §4

Data set [3] concerns Huh7 subcutaneous xenografts. In words: Huh7 subcutaneous xenograft in NGS mice. Type of data set: in vivo. The note with it: 30 mg/kg oral gavage, one week.
Description: (§7) Asterisks denote p ≤ 0.05 in comparison with vehicle control by unpaired Student’s t test.
(§8) All procedures involving animals were approved by the UCSD Animal Care Committee, which serves to ensure that all federal guidelines concerning animal experimentation are met. Six to eight week old NGS mice were implanted with 10^7 Huh7 or Jeko-1 cells in the right flank. When tumors reached ∼100 mm^3 after tumor implantation, animals were divided into four groups (n = 8 per group). […] Mice were treated for 1 week by oral gavage, 5 times per week.
The test system of data set [4] is JeKo-1 cells. In words: Propidium iodide flow cytometry cell cycle analysis, JeKo-1. The note with it: 24 h. Type of data set: cell-based. How it is done:
(§5) (Fig. 2a). […] Palbociclib was used as control given its known inhibition of CDK4/6 and resultant G1 cell cycle growth arrest. […] We next assessed the level of apoptosis by FITC-annexin V incorporation in each of these cell lines.
(§6) Huh7, CHLA-255, or Jeko-1 cells were seeded at 1.5 × 10^6 cells in 60-mm tissue culture dishes and allowed to adhere overnight. […] Cells were released with Accutase (Innovative Cell Technologies, San Diego, CA), washed with PBS and divided for either staining with the FITC Annexin V Apoptosis Detection Kit (BD Biosciences, San Jose, CA) or overnight fixation with ethanol followed by staining with propidium iodide (Roche, Basel, Switzerland) according to each manufacturers’ instructions. Cell staining was analyzed with the FACSCalibur flow cytometer (BD Biosciences) and FlowJo (FlowJo LLC, Ashland, Oregon) and ModFit LT (Verity Software House, Topsham, ME) software packages.

Data set [5] concerns JeKo-1 subcutaneous xenografts. In words: JeKo-1 subcutaneous xenograft in NGS mice. Type of data set: in vivo. The note with it: 40 mg/kg oral gavage, one week.
Description: as §7, §8
The test system of data set [6] is Huh7 cells. Description: FITC-annexin V apoptosis assay, Huh7. Type of data set: cell-based. The note with it: treatment at the IC50, 24 h. Here is the method:
as §5, §6

For a further data set, the system named is CDK4. Also noted: method as in PMID 32793389. The note with it: previously identified; cited from earlier work.
For data set [7], the system named is Huh7 cells. In words: Propidium iodide flow cytometry cell cycle analysis, Huh7. Format: cell-based. The note with it: 24 h. Here is the method: as §5, §6
The next data set concerns CHLA-255 cells. In words: Propidium iodide flow cytometry cell cycle analysis, CHLA-255. Format: cell-based. The note with it: 24 h. How it is done:
as §5, §6

T2 sequence (P42336 whole entry): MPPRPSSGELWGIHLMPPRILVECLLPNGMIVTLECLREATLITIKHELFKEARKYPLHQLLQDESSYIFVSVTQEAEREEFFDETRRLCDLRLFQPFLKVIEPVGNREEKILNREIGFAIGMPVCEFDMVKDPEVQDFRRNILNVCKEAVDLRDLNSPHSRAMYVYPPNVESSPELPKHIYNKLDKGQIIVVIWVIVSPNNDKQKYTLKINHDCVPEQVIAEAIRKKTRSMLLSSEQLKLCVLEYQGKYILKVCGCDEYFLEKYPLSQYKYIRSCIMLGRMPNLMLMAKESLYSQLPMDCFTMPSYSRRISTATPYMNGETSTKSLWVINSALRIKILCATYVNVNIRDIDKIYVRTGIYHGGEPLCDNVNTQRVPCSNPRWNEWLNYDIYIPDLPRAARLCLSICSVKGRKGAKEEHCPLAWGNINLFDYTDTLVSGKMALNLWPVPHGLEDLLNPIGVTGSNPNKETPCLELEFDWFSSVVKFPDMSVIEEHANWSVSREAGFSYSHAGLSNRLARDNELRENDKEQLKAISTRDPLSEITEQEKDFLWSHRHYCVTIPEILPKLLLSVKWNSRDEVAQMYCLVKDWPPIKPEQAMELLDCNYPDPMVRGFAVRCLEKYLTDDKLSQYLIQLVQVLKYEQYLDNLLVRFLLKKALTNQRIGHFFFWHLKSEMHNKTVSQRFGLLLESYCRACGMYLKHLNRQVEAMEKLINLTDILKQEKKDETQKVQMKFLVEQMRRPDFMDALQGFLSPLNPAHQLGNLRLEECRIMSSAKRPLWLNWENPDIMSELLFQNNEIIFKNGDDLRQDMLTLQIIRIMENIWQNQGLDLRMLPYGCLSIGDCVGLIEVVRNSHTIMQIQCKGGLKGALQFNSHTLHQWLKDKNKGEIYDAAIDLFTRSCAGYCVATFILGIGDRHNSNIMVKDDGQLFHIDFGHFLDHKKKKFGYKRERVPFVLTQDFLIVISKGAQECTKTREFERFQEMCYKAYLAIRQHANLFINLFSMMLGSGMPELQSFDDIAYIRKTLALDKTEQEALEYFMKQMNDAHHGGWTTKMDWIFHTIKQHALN
T2 sequence (P27986 whole entry partner): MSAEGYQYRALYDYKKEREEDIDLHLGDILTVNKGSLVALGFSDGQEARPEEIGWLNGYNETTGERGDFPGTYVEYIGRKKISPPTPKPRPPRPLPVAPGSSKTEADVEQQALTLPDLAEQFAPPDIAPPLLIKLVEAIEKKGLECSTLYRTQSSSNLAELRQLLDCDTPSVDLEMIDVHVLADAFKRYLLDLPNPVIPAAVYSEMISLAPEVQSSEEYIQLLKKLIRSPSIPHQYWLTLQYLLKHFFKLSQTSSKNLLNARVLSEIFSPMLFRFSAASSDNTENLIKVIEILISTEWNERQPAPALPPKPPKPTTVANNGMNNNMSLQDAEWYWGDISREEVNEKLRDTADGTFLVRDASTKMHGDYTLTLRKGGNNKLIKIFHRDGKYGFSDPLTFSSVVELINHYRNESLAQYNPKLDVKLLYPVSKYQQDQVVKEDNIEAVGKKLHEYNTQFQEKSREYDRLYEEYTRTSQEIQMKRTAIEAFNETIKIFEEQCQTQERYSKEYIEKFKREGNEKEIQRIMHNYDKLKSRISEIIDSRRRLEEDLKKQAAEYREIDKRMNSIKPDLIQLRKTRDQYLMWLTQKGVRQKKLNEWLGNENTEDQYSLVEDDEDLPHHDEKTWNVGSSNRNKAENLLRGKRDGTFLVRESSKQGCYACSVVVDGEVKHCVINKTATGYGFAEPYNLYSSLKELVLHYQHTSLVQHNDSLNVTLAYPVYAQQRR

Regarding `O=c1cc(N2CCNCC2)oc2c(-c3ccc4c(c3)OCCO4)csc12` [SF2523P], the IC50 stood at 15700 nM at BRD4BD2, 48700 nM against PI3Kα and 388 nM on BRD4BD1.

For the compound `O=C(NCc1cccnc1)c1cc(-c2csc3c(=O)cc(N4CCNCC4)oc23)cc2c1OCCO2` [SRX3212P], the IC50 in the data set on Mino cells was 3900 nM; in the data set on SKNBE-2 cells, 15000 nM; in the data set with JeKo-1 cells [1], 3100 nM; in the data set on Z138 cells, 2900 nM; on BRD4BD2 it was 2810 nM; on PI3Kα it was 5700 nM. This compound also registered an IC50 at BRD4BD1 of 27 nM. The “AKT phosphorylation at Ser473” value in data set [2] is given as “did not decrease AKT phosphorylation”. In addition, the “cytotoxic activity in prostate cancer cell line PC3” value in the data set on PC3 cells is on record as “Neither inhibitor sensitized”.

Consider `O=C(NCc1cccnc1)c1cc(-c2csc3c(=O)cc(N4CCOCC4)oc23)cc2c1OCCO2` [SRX3212], for which the IC50 with Mino cells is 440 nM; in the data set on SKNBE-2 cells, 3200 nM; in the data set with JeKo-1 cells [1], 280 nM; in the data set on Z138 cells, 240 nM; at BRD4BD2 it was 32 nM; on PI3Kα it was 22 nM. The IC50 in the data set on HCT116 cells was found to be 1300 nM; at BRD4BD1, 3.7 nM. The “AKT phosphorylation at Ser473” value in data set [2] is recorded as “concomitant decrease in levels of AKT phosphorylation at Ser473”. Moreover, in the data set on PC3 cells, the “cytotoxic activity in prostate cancer cell line PC3” value is recorded as “Neither inhibitor sensitized”. Besides, on BRD4BD1 (BRD4BD1), the “increase in potency of SRX3212 compared to SRX3212P” value is reported as “sevenfold”.

`CN(C)C(=O)c1cc2cnc(Nc3ccc(-c4csc5c(=O)cc(N6CCOCC6)oc45)cc3)nc2n1C1CCCC1` [SRX3177]: in [3], the “tumor growth vs vehicle control, Huh7 xenograft” value was “significant abrogation of tumor growth”. For the same compound, in the data set with JeKo-1 cells [4], the “cell cycle arrest at higher doses (near the IC50), JeKo-1” value is listed as “induced G2 phase growth arrest” and the “cell cycle arrest at low dosage (near the IC10), JeKo-1” value is on record as “induction of G1 cell cycle arrest”. The mortality result (mouse, in vivo, po) is “no treatment-related death”. For the same compound, under “oral gavage, one week”, the “adverse effects / toxicity” value is reported as “no adverse effects were noted”. Besides, the animal weight result (oral gavage, one week, vs vehicle) is recorded as “remained the same”. In addition, the “tumor growth vs vehicle control, JeKo-1 xenograft” value in data set [5] is recorded as “significant abrogation of tumor growth”. Moreover, the “induction of early apoptosis, Huh7” value in the data set on Huh7 cells [6] is given as “~ threefold”. The IC50 in the data set with CDK4 is 2.5 nM. Further, in the data set with Huh7 cells [7], the “cell cycle arrest at higher doses (near the IC50), Huh7” value is reported as “induced G2 phase growth arrest” and the “cell cycle arrest at low dosage (near the IC10), Huh7” value was “induction of G1 cell cycle arrest”. Moreover, the “cell cycle arrest at low dosage (near the IC10), CHLA-255” value in the data set with CHLA-255 cells was “induction of G1 cell cycle arrest”.

In general, IC50 refers to the concentration that inhibits the measured activity by half.
